Measurements taken from US20230090691A1, “COMPOSITIONS AND METHODS FOR PROMOTING AND/OR MAINTAINING VAGINOVULVAL AND PERIANAL TISSUE VITALITY AND TISSUE HEALTH” (SPINART, LLC, priority 2021, published 2023).
Several values for one entry are separate records, joined by “and”; a condition that tells them apart may be missing. Identical values can stand only once. Entries after “also recorded” stand apart in the source; their conditions may differ.

How the values were obtained:
[1] = tested on: human keratinocytes (HaCaT); assay: Wound-healing (scratch) assay; format: cell-based; settings: for wound area Basal (0 h): 20 ng/ml wells, immediately after wounding; for wound area Basal (0 h) / % area wound 24 h / % relative Area to Control 24 h / % wound healing 24 h / wound area 24 h: replicates; for wound healing enhanced, compared to the untreated control / Decreased wound area / % area wound 24 h / % relative Area to Control 24 h / % wound healing 24 h / wound area 24 h: 20 ng/ml; for wound healing enhanced, compared to the untreated control: 24 hours; for Decreased wound area: 24 hr
Text: An in vitro scratch assay was used to study cell migration in vitro. [Todaro, G J et al. The initiation of cell division in a contact-inhibited mammalian cell line. J. Cell Physiol. (1965) 66: 325-33]. This method is based on the observation that, upon creation of a new artificial gap or “scratch”, on a confluent cell monolayer, the cells on the edge of the newly created gap will move toward the opening to close the “scratch” until new cell-cell contacts are established. One of the major advantages of this simple method is that it mimics to some extent migration of cell in vivo. For example, removal of part of the endothelium in blood vessels will induce migration of endothelial cells (ECs) into the denuded area to close the wound [Haudenschild, C. et al. Endothelial regeneration. II. Restitution of endothelial continuity. Lab. Invest. (1979) 41: 407-18]. Furthermore, the patterns of migration either as a loosely connected population (e.g., fibroblasts) or as sheets of cells (e.g., epithelial and EECs) also mimic the behavior of these cells during migration in vivo. The scratch assay is particularly suitable to study the regulation of cell migration by cell interaction with extracellular matrix (ECM) and cell-cell interactions.
For the wound-healing assay, HaCaT keratinocytes were seeded overnight in DMEM medium supplemented with 10% fetal bovine serum (FBS) at 80% confluence (190,000 cells per well. The next day, a 2 mm wound was made over the confluent monolayer using a 1 ml pipete tip. Test samples were added to the HaCaT cells, supplemented with 0.5% FBS. The untreated control was 0.5% FBS.
Images were taken before and after 24 hours of treatment, and wound area was quantified using ImageJ software. All data were statistically analyzed.
For seeding cells, cell numbers and viability were determined using Trypan-Blue staining; cells were counted in a Bürker chamber under the microscope. Human keratinocytes (HaCaT cells) were seeded overnight in DMEM medium supplemented with 10% fetal bovine serum (FBS).
Parallel lines were drawn at the bottom of the wells (3 mm separated lines outside the plate). These lines were used as boundaries for scratch images, thus providing an accurate analysis in each well. Cells were seeded at 190,000 cells/well to promote the formation of a monolayer and kept at 37 C for 24 h. Then, 2 mm-wide wounds were made in the confluent monolayer. Wells were washed once with PBS and refilled with DMEM+0.5% FBS. Basal images were taken immediately using a microscope. […] In addition, human epidermal growth factor (hEGF) at 20 ng/ml was included as a positive control, and 0.5% FBS as a basal control.
Plates were placed in the 37° C. incubator and incubated for 24 h to allow the scratch to heal. Microscopic images are shown below. One biological replicate was performed and four technical replicates per condition were used.
Data analysis was performed using ImageJ software. Microscopic images are shown in Results. Statistical analysis (ordinary one-way ANOVA test) was performed to determine the significance between tested samples and basal control.
The percentage of wound area in each well at 24 hr was calculated by dividing the wound area at 24 hr and the wound area immediately after making the wound. The mean value for the four replicates in the Basal Control (untreated) group was obtained and used to normalize each measure in all of the samples and conditions. A bar graph was generated to represent the wound area or wound healing in each of the tested conditions.

[2] = tested on: urogenital atrophy in breast cancer patients; settings: study of 46 patients; compared to saline; cited from earlier work
[3] = experiment with RS-0198A and RS-0198B

Compound: EGF: human epidermal growth factor, positive control at 20 ng/ml
- wound area Basal (0 h) [1]: 1324098 pixels and 1346138 pixels and 1134400 pixels and 1741659 pixels
- wound area Basal (0 h) ([1]; listed as C + EGF): 1188450 pixels and 1278864 pixels and 1237384 pixels and 1227903 pixels
- wound healing enhanced, compared to the untreated control ([1]; experiment with RS012221): 94.0±8.6%
- wound healing enhanced, compared to the untreated control [1, 3]: 60.4±15.7%
- Decreased wound area ([1]; experiment with RS012221): 94.0±8.6%
- Decreased wound area [1, 3]: 60.4 ± 15.7%
- % area wound 24 h [1]: 19.877% and 29.524% and 18.706% and 6.405%
- % relative Area to Control 24 h [1]: 42.310% and 62.846% and 39.818% and 13.633%
- % wound healing 24 h [1]: 57.690% and 37.154% and 60.182% and 86.367%
- wound area 24 h [1]: 263185 pixels and 397433 pixels and 212198 pixels and 111545 pixels
- % area wound 24 h ([1]; listed as C + EGF): 27.291% and 2.058% and 0.000% and 5.244%
- % relative Area to Control 24 h ([1]; listed as C + EGF): 89.630% and 6.758% and 0.000% and 17.222%
- % wound healing 24 h ([1]; listed as C + EGF): 10.370% and 93.242% and 100.000% and 82.778%
- wound area 24 h ([1]; listed as C + EGF): 24456 pixels and 0 pixels (2×) and 64389 pixels
- wound area (result in words) ([1]; 24 hr treatment of HaCaT, compared to the untreated control): significantly decreased wound area
- wound healing (result in words) ([1]; 24 h treatment of HaCaT, compared to untreated control, concentrations as in the sentence, listed as hEGF): enhanced wound healing; also recorded: boosted wound healing

Compound: CCN(CC)CC(=O)Nc1c(C)cccc1C [lidocaine]
- patients with reduced dyspareunia [2]: 90%
